Data on 5 compounds can be found in paper PMC10708527, “Salazinic Acid and Norlobaridone from the Lichen Hypotrachyna cirrhata: Antioxidant Activity, α-Glucosidase Inhibitory and Molecular Docking Studies” (Molecules, 2023).

The target of the assay is T1, intestinal α-glucosidase.
T1 construct: crude rat intestinal enzyme
The assay is described as follows: crude enzyme inhibition, p-nitrophenyl-α-D-glucopyranoside hydrolysis at […] nm. The assay is classed as biochemical, Rattus norvegicus.

On to `C[C@H]1O[C@H](O[C@H]2[C@H](O)[C@@H](O)[C@@H](O[C@H]3[C@H](O)[C@@H](O)C(O)O[C@@H]3CO)O[C@@H]2CO)[C@H](O)[C@@H](O)[C@@H]1N[C@H]1C=C(CO)[C@@H](O)[C@H](O)[C@H]1O` (some centres unmarked) [acarbose, reference compound], for which the “Intestinal α-Glucosidase % Inhibition (IC50)” value worked out at 2.58 ± 0.85 µg/mL.

Turning to `Cc1cc(O)c(C=O)c2c1C(=O)Oc1c(CO)c(O)c3c(c1O2)C(O)OC3=O` (centres unmarked) [compound 11, salazinic acid], the “Intestinal α-Glucosidase % Inhibition (IC50)” value amounted to 1.62 ± 0.07 µg/mL.

Take `CCCCCc1cc(O)cc2c1Oc1cc(O)cc(C(=O)CCCC)c1C(=O)O2` [compound 12, norlobaridone]: the “Intestinal α-Glucosidase % Inhibition (IC50)” value was determined as 1.41 ± 0.01 µg/mL.

`COC(=O)c1c(C)cc(OC(=O)c2c(C)cc(O)c(C=O)c2O)c(C)c1O` [compound 13, atranorin]: the “Intestinal α-Glucosidase % Inhibition (IC50)” value is on record as 2.07 ± 0.01 µg/mL.

Regarding `COc1c(C)c(O)cc(C)c1C(=O)O` [compound 18, iso-rhizonic acid], the “Intestinal α-Glucosidase % Inhibition (IC50)” value is given as 1.99 ± 0.03 µg/mL.
